Holding throughout (type): physicochemical
Data set [1] in a line: Evaluation of solubility in cyclopentanone. Particulars: precipitation concentration in cyclopentanone at 25° C. As to the method:
The solubility of each of the compounds (the compounds A-1 to A-11 and the compounds B-1 and B-2) in cyclopentanone was evaluated.

A short description of data set [2]: Measurement of Δn (refractive index anisotropy), wedge-shaped liquid crystal cell. Particulars: 550 nm, 30° C. or lower limit temperature of nematic phase +0 to 10° C.; some compounds extrapolated from 1/2 mixture with L-1-1. As to the method: The Δn of each of the compounds (the compounds A-1 to A-11 and the compounds B-1 and B-2), which are the compounds to be measured, was measured by a method using a wedge-shaped liquid crystal cell described on page 202 in the Liquid crystal handbook (edited by the liquid crystal handbook editorial board, published by Maruzen Co., Ltd., 2000). Δn was defined as a measured value at a wavelength of 550 nm at 30° C. or the lower limit temperature of the nematic phase +0° C. to 10° C. In a case of a compound which is liable to crystallize or a compound having no liquid crystallinity, evaluation was carried out using a mixture thereof with the other liquid crystal compound, and Δn was estimated from the extrapolated value of the measured value thereof. The following L-1-1 was used as the other liquid crystal compound. As the above mixture, a mixture obtained by mixing at a ratio of the compound to be measured/the L-1-1=1/2 (in terms of mass ratio) was used.
A case where Δn was 0.40 or more was evaluated as A, a case where Δn was 0.35 or more and less than 0.40 was evaluated as B, a case where Δn was 0.30 or more and less than 0.35 was evaluated as C, and a case where Δn was less than 0.30 was evaluated as D. The results are shown in Table 1.

Data set [3] can be described thus: Evaluation of light resistance of optically anisotropic layer (Super Xenon Weather Meter). Particulars: rate of change in Re of cured layer (25 parts compound, 75 parts L-1), 5 million lx, 50 hours, 63° C., 50% RH, oxygen-blocking. As to the method:
(§1) As shown below, the light resistance and the durability of the optically anisotropic layer produced using the composition containing each of the compounds A-1 to A-11 and the compounds B-1 and B-2 were evaluated.
(§2) A coating liquid having the following composition was prepared and applied by spin-coating, onto a rubbing-treated glass attached with an alignment film. Each composition was irradiated with ultraviolet rays of 300 mJ/cm^2 through a filter that cuts light having a wavelength of 350 nm or less on a hot plate which had been heated to a temperature at which a nematic phase is shown, whereby an optically anisotropic layer for a light resistance/durability test was produced.
(§3) The polymerizable liquid crystal compound L-1 is a mixture obtained by mixing at a
(§4) ratio of the following L-1-1/L-1-2/L-1-3=84/14/2 (in terms of mass ratio).
The produced optically anisotropic layers for light resistance/durability tests were irradiated with light using a Super Xenon Weather Meter SX75 manufactured by Suga Test Instruments Co., Ltd. Using KU-1000100 manufactured by King Seisakusho Co., Ltd. as a UV cut filter, a light resistance test was carried out by irradiation with 5 million lx of light for 50 hours under an oxygen-blocking condition. The temperature of the specimen to be tested (the temperature inside the test device) was set to 63° C. The relative humidity in the test device was 50% RH.
The Re of the optically anisotropic layer before and after the light resistance test was measured, the light resistance in a case where the rate of change in Re described below was less than 10% was evaluated as A, and the light resistance in a case where the rate of change in Re was 10% or more was evaluated as B. The smaller the rate of change in Re, the more excellent the light resistance.
(§5) Rate of change in Re (%)=[100×{|(Re after test)−(Re before test)|}/(Re before test)]
(§6) Re was measured with Axoscan manufactured by Axometrics Inc. at a wavelength of 550 nm, and the measurement temperature was set to room temperature.

Data set [4] can be described thus: Evaluation of durability of optically anisotropic layer (moisture-heat resistance test). To be noted: rate of change in Re of cured layer (25 parts compound, 75 parts L-1), 136 hours at 100° C., humidity 95%. On the procedure:
as §1, §2, §3, §4, §5, §6
The produced optically anisotropic layer was allowed to be left for 136 hours at 100° C. and a humidity of 95%, whereby a moisture-heat resistance test was carried out. The rate of change in Re before and after the durability test was evaluated, the durability in a case where the rate of change in Re was less than 10% was evaluated as A, and the durability in a case where the rate of change in Re was 10% or more was evaluated as B. The smaller the rate of change in Re, the more excellent the durability.

Data set [5] can be described thus: Evaluation of liquid crystallinity (hot stage, polarization microscope). More on the design: key: A case of having liquid crystallinity was evaluated as A; a case of having no liquid crystallinity was evaluated as B. To be noted: heated on a hot stage. As to the method: The respective compounds (the compounds A-1 to A-11 and the compounds B-1 and B-2) were heated on a hot stage and observed with a polarization microscope, and the phase transition temperature was measured to evaluate the presence or absence of the liquid crystallinity. A case of having liquid crystallinity was evaluated as A, and a case of having no liquid crystallinity was evaluated as B. The results are shown in Table 1.
Since the compound A-8 has melting points of 200° C. or higher and undergoes a polymerization reaction during heating, liquid crystallinity could not be evaluated.

In the case of `CC(=O)OCCCCCCCCCCOc1ccc(C#Cc2ccc(OC(=O)c3ccc(C#Cc4ccc(OCCCCCCCCCCOC(C)=O)c(F)c4)cc3)cc2)cc1F` [Compound B-1, reference compound], the Solubility result in data set [1] is listed as “A (the solubility in a case where the precipitation concentration was 5% by mass or more was evaluated as A)”. Further, the Δn entry in data set [2] is listed as “D (a case where Δn was less than 0.30 was evaluated as D)”. The Light resistance entry in data set [3] is on record as “B (the light resistance in a case where the rate of change in Re was 10% or more was evaluated as B)”. The Durability entry in data set [4] is reported as “A (the durability in a case where the rate of change in Re was less than 10% was evaluated as A)”. The Liquid crystallinity result in data set [5] is on record as “A”.
`C=CC(=O)OCCCCOc1ccc(C(=O)Nc2ccc(C#Cc3ccc4cc(OCCCCOC(=O)C=C)ccc4c3)cc2C(F)(F)F)cc1` [Compound B-2, reference compound]: in data set [1], the Solubility entry is recorded as “A (the solubility in a case where the precipitation concentration was 5% by mass or more was evaluated as A)”. In addition, the Δn entry in data set [2] is “C (a case where Δn was 0.30 or more and less than 0.35 was evaluated as C)”. In addition, the Light resistance entry in data set [3] is recorded as “A (the light resistance in a case where the rate of change in Re described below was less than 10% was evaluated as A)”. Moreover, in data set [4], the Durability entry was “A (the durability in a case where the rate of change in Re was less than 10% was evaluated as A)”. Besides, the Liquid crystallinity entry in data set [5] is listed as “A”.

The values above are taken from US20240182785A1, “COMPOUND, COMPOSITION, CURED PRODUCT, OPTICALLY ANISOTROPIC BODY, OPTICAL ELEMENT, AND LIGHT GUIDE ELEMENT” (FUJIFILM Corporation, priority 2021, published 2024).
